Patent US4034092A, “7-Acyl-3-(carboxyalkyl and carbamoylalkyl substituted oxadiazolylthiomethyl) cephalosporins” (SmithKline Corporation, priority 1976, dated 1977)
Values after ≈ are worked out from the molar mass of the structure shown. Where two headings read alike, the source gives them in different places.

Key:
S. aureus HH 125 = experiment: in vitro MIC testing, S. aureus HH 125; assay type: cell-based; conditions: Staphylococcus aureus, HH125
Protocol: (§1) The compounds of Formula I have exceptional antibacterial activity against both Gram-positive and Gram-negative organisms. Minimum inhibitory concentrations (MIC's) range from 0.2 to >200 μg./ml. in in vitro testing. Test results for the compound 7-D-mandelamido-3-(5-carboxymethyl-1,3,4-oxadiazol-2-ylthiomethyl)-3-cephem-4-carboxylic acid and its disodium salt, respectively, are given below: […]

Salmonella ATCC 12176 = experiment: in vitro MIC testing, Salmonella ATCC 12176; assay type: cell-based; conditions: ATCC12176
Protocol: as §1

Kleb. pneumo. SK 1200 = experiment: in vitro MIC testing, Kleb. pneumo. SK 1200; assay type: cell-based
Protocol: as §1

Strep. faecalis HH 34358 = experiment: in vitro MIC testing, Strep. faecalis HH 34358; assay type: cell-based; conditions: Enterococcus faecalis, HH34358
Protocol: as §1

S. aureus SK 23390 = experiment: in vitro MIC testing, S. aureus SK 23390; assay type: cell-based; conditions: Staphylococcus aureus, SK23390
Protocol: as §1

[1] = test system: Serratia marc. ATCC 13880; experiment: in vitro MIC testing, Serratia marc. ATCC 13880; assay type: cell-based; conditions: ATCC13880
Protocol: as §1

Shigella HH 117 = experiment: in vitro MIC testing, Shigella HH 117; assay type: cell-based; conditions: HH117
Protocol: as §1

Pseudo. aerug. HH 63 = experiment: in vitro MIC testing, Pseudo. aerug. HH 63; assay type: cell-based
Protocol: as §1

S. villaluz SK 70390 = experiment: in vitro MIC testing, S. villaluz SK 70390; assay type: cell-based
Protocol: as §1

E. coli SK 12140 = experiment: in vitro MIC testing, E. coli SK 12140; assay type: cell-based; conditions: Escherichia coli, SK12140
Protocol: as §1

E. coli HH 33779 = experiment: in vitro MIC testing, E. coli HH 33779; assay type: cell-based; conditions: Escherichia coli, HH33779
Protocol: as §1

Kleb. pneumo. SK 4200 = experiment: in vitro MIC testing, Kleb. pneumo. SK 4200; assay type: cell-based
Protocol: as §1

Proteus morgani 179 = experiment: in vitro MIC testing, Proteus morgani 179; assay type: cell-based
Protocol: as §1

E. coli 12140 = experiment: in vivo mouse protection test, E. coli 12140; conditions: Escherichia coli, sc; subcutaneous injection; against E. coli 12140
Excerpt: (§2) 4200 upon subcutaneous injection.

Kleb. pneumo. 4200 = experiment: in vivo mouse protection test, Kleb. pneumo. 4200; conditions: sc, subcutaneous injection, against Kleb. pneumo. 4200
Excerpt: as §2

Entero. cloacae HH 31254 = experiment: in vitro MIC testing, Entero. cloacae HH 31254; assay type: cell-based; conditions: Enterobacter cloacae, HH31254
Protocol: as §1

[2] = test system: Entero. aerog. ATCC 13048; experiment: in vitro MIC testing, Entero. aerog. ATCC 13048; assay type: cell-based
Protocol: as §1

Work on `O=C([O-])Cc1nnc(SCC2=C(C(=O)[O-])N3C(=O)C(NC(=O)[C@H](O)c4ccccc4)[C@H]3SC2)o1.[Na+].[Na+]` (stereo partly drawn) [7-D-Mandelamido-3-(5-carboxymethyl-1,3,4-oxadiazol-2-ylthiomethyl)-3-cephem-4-carboxylic acid disodium salt] yielded an MIC (S. aureus HH 125) of 3.1 µg/mL, an MIC (Salmonella ATCC 12176) of 0.8 µg/mL and an MIC (Kleb. pneumo. SK 1200) of 0.4 µg/mL. The MIC (Strep. faecalis HH 34358) was 50 µg/mL, the MIC (S. aureus SK 23390) was 0.8 µg/mL and the MIC ([1]; Serratia) was 50 µg/mL. The MIC (Shigella HH 117) was 0.4 µg/mL, the MIC (Pseudo. aerug. HH 63) was over 200 µg/mL and the MIC (S. villaluz SK 70390) was 200 µg/mL. The MIC (E. coli SK 12140) was 0.8 µg/mL and the MIC (E. coli HH 33779) was 3.1 µg/mL.

`O=C(O)Cc1nnc(SCC2=C(C(=O)O)N3C(=O)C(NC(=O)[C@H](O)c4ccccc4)[C@H]3SC2)o1` (stereo partly drawn) [7-D-Mandelamido-3-(5-carboxymethyl-1,3,4-oxadiazol-2-ylthiomethyl)-3-cephem-4-carboxylic acid] gave an MIC (Kleb. pneumo. SK 4200) of 0.8 µg/mL (≈ 1.58 µM), an MIC (Proteus morgani 179) of 6.3 µg/mL (≈ 12.4 µM) and an ED50 (E. coli 12140) of 1.56 mg/kg. The MIC (S. aureus HH 125; in vitro, S. aureus HH 125, read-out: MIC) was 1.6 µg/mL (≈ 3.16 µM), the MIC (Salmonella ATCC 12176) was 0.8 µg/mL (≈ 1.58 µM) and the MIC (Kleb. pneumo. SK 1200; in vitro, Kleb. pneumo. SK 1200, read-out: MIC) was 0.8 µg/mL (≈ 1.58 µM). For the same compound, the ED50 (Kleb. pneumo. 4200) was 0.86 mg/kg, the MIC (Strep. faecalis HH 34358; in vitro, Strep. faecalis HH 34358, read-out: MIC) was 12.5 µg/mL (≈ 24.7 µM) and the MIC (S. aureus SK 23390; in vitro, S. aureus SK 23390, read-out: MIC) was 0.4 µg/mL (≈ 0.79 µM). For the same compound, the MIC (Entero. cloacae HH 31254) was 1.6 µg/mL (≈ 3.16 µM), the MIC ([1]; in vitro, Serratia marc. ATCC 13880, read-out: MIC) was 25 µg/mL (≈ 49.4 µM) and the MIC (Shigella HH 117) was 0.2 µg/mL (≈ 0.395 µM). The MIC (Pseudo. aerug. HH 63) was over 200 µg/mL, the MIC (S. villaluz SK 70390) was 50 µg/mL (≈ 98.7 µM) and the MIC (E. coli SK 12140) was 0.8 µg/mL (≈ 1.58 µM). It also gave an MIC [2] of 3.1 µg/mL (≈ 6.12 µM) and an MIC (E. coli HH 33779) of 1.6 µg/mL (≈ 3.16 µM).
